{"source": "patent US11952349B2", "about": "“Anti-cancer nuclear hormone receptor-targeting compounds” (Nuvation Bio Inc., priority 2019, dated 2024)", "key": {"Human recombinant PARP2": {"molecular_target": "Human recombinant PARP2 (Homo sapiens, UniProt Q9UGN5)", "sequence (Q9UGN5 whole entry)": "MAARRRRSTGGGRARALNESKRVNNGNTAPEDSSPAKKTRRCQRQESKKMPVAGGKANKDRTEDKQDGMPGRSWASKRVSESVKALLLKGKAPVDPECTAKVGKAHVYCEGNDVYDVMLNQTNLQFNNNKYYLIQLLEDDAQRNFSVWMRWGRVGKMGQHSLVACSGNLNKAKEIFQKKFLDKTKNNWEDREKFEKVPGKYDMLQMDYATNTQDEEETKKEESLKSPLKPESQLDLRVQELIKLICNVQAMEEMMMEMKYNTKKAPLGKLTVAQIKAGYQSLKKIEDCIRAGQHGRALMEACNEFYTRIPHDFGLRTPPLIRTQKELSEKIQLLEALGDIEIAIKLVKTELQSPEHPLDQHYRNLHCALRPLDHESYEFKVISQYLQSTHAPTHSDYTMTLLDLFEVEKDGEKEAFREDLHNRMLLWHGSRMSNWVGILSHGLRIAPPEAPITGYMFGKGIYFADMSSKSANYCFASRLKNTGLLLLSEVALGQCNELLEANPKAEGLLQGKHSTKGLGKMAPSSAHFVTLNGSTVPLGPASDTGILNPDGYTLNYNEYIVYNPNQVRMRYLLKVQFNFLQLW", "test": "RBC HotSpot PARP2 assay (radioisotope-based filter binding)", "type": "biochemical", "procedure": "(§1) The following methods are for evaluating the in vitro biology properties of the test articles. • a. RBC HotSpot Poly(ADP-ribose) Polymerases 1 (PARP1) and Poly(ADP-ribose) Polymerases 2 (PARP2) Assays: The assay was conducted at Reaction Biology Corporation (RBC; Malvern, PA). The assay principle is radioisotope-based filter binding assay where incorporation of radioisotope-labeled NAD^+ into the substrate captured on filter is detected after washout free NAD^+. Data were analyzed using Excel and GraphPad Prism software for IC50 curve fits. Each assay was conducted with PJ34 as a positive control. PARP1 assay: Human recombinant PARP1 at a final concentration of 2.5 nM was combined with histone H4 (20 μM) and test articles at various concentrations in reaction buffer (50 mM Tris-HCL, pH 8.0, 50 mM NaCl, 10 mM MgCl2, 1 mM DTT, 1% DMSO, and 20 μg/mL activated DNA). The solution was inoculated for 20 min at room temperature and the reaction initiated by adding [adenylate-^32P]-Nicotinamide Adenine Dinucleotide, ^32P-NAD^+ at a final concentration of 10 μM. After incubation for 2 hrs at room temperature, the reaction mixture was filtered and washed with 0.75% phosphoric acid for radioactivity detection. • ii. PARP2 assay: Human recombinant PARP2 at a final concentration of 2.5 nM was combined with histone H3 (20 μM) and test articles at various concentrations in reaction buffer (50 mM Tris-HCL, pH 8.0, 50 mM NaCl, 10 mM MgCl2, 1 mM DTT, 1% DMSO, and 20 μg/mL activated DNA). The solution was inoculated for 20 min at room temperature and the reaction was initiated by adding [adenylate-^32P]-Nicotinamide Adenine Dinucleotide, ^32P-NAD^+ at a final concentration of 10 μM. After incubation for 2 hrs at room temperature, the reaction mixture was filtered and washed with 0.75% phosphoric acid for radioactivity detection. • b. AR binding assay: AR in LNCaP cytosol was used for determining the binding affinity of test articles and the reference compound—progesterone (Sigma, Cat: E2785, St. Louis, MO). IC50 s were determined using 8 concentrations/compound. Cytosol is plated at 200 μg/well (100 μL) into a 96-well conical polypropylene plate (Agilent, Cat: 5042-1385, Santa Clara, CA) and mixed with 3 μL of test compound. After adding 100 μL of ^3H-methyltrienolone (PerkinElmer, Cat: NET590250UC, San Jose, CA), the plate was sealed and shaken at 300 rpm at 4° C. for 24 hours. Post incubation, 100 μL of radioligand adsorption buffer containing 10 mM Tris-HCl, pH 7.4; 1.5 mM EDTA; 1 mM DTT; 0.25% charcoal; 0.0025% dextran was added to individual wells. Plate was shaken for 15 min at 4° C. followed by centrifugation at 3000 rpm for 30 min at 4° C. 150 μL of supernatant is transferred into scint-tube (PerkinElmer, Cat: 6000192) and mixed with 2 mL of Ultima Gold Cocktail (PerkinElmer, Cat: 6013329). Radioactivity is counted using a TriCarb 2910 TR scintillation counter (PerkinElmer). Inhibition of the radioactivity by test articles was calculated using the equation below: % Inhibition=(1−(Assay well−Average_LC)/(Average_HC−Average_LC))×100%. • IC50 values (Table 6) were calculated and graphed using the model “log(inhibitor) vs. response—Variable slope” included in GraphPad Prism 5 (San Diego, CA). The Ki values were further calculated using the equation below where [L] is the radioligand concentration (1 nM) used in this study. Kd value was 0.332 nM. Ki=IC50/(1+[L]/Kd) • c. AR transactivation: Human AR cloned into a CMV vector backbone is used for the transactivation study. HEK-293 cells are plated at 80,000 cells per well of a 24 well plate in DME+5% csFBS. Twenty four hours later, the cells are transfected using Lipofectamine (Invitrogen, Carlsbad, CA) with 0.25 μg GRE-LUC, 0.01 μg CMV-LUC (renilla luciferase) and 25 ng of the AR in OPTIMEM medium. The cells are treated 24 hrs after transfection with various ligands (10^−12 to 10^−5 M final concentrations) and luciferase assay performed 48 hours after transfection. […]"}, "22Rv1 cells": {"system": "22Rv1 cells", "test": "Cell viability assay (CellTiterGlo, 6 days) 22Rv1", "type": "cell-based", "settings": "Homo sapiens, 22Rv1, 144 h, read-out: 22RV1", "procedure": "(§2) Cell viability assay: LNCap, 22Rv1, and T47D cells were seeded at a density of 1500-2000 cells/well in 96 well plates, and a ‘T0’ (timepoint 0) was included along with the assay plate. The plates were then incubated at 37° C., 5% CO2 in a cell culture incubator overnight. On the next day, the ‘T0’ plate was assayed using CellTiterGlo (Promega, Inc) according to the manufacturer's instructions. The appropriate compounds were diluted in DMSO and added to the assay plate (final DMSO concentration of 0.2%) on the next day. The assay plates were incubated for 6 days at 37° C., 5% CO2. After the incubation period, the plates were assayed using CellTiterGlo (Promega, Inc) according to the manufacturer's instructions and luminescence was read on the EnVision plate reader. Inhibition the tested compounds was determined by the following formula: Inhibition rate (%)=(1−(RLU compound−RLU day0)/(RLU control−RLU day0))*100%. GraphPadPrism was used to analyze the data and determine absolute IC50 values."}, "LNCap cells": {"system": "LNCap cells", "test": "Cell viability assay (CellTiterGlo, 6 days) LNCap", "type": "cell-based", "settings": "Homo sapiens, 144 h", "procedure": "as §2"}, "Human recombinant PARP1": {"molecular_target": "Human recombinant PARP1 (Homo sapiens, UniProt P09874)", "sequence (P09874 whole entry)": "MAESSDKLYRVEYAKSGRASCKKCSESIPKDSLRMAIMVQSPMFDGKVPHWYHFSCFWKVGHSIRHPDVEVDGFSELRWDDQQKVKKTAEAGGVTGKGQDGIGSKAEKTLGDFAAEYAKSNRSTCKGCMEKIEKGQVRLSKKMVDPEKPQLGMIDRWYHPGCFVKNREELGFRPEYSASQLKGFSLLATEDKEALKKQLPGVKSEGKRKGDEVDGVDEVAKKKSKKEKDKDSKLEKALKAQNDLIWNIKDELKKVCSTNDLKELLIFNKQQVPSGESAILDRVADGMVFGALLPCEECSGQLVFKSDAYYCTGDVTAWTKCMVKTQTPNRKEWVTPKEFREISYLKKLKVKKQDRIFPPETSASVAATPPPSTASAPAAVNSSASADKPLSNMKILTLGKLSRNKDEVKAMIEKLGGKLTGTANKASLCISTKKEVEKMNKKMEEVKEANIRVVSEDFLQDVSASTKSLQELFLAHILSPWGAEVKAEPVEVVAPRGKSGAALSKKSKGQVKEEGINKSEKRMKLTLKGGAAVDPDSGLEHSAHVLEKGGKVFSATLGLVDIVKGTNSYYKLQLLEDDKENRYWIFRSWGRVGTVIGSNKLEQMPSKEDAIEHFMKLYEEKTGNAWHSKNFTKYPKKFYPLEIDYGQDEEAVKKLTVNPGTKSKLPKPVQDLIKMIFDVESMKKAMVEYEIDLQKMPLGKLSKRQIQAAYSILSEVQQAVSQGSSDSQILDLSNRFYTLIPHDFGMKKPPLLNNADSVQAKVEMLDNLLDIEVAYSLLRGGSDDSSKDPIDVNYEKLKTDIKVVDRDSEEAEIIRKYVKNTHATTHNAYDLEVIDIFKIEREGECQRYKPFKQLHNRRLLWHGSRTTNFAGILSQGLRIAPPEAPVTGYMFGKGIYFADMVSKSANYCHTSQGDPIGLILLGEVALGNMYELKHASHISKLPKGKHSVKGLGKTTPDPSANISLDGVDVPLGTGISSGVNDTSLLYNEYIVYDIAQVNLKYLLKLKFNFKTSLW", "test": "RBC HotSpot PARP1 assay (radioisotope-based filter binding)", "type": "biochemical", "procedure": "as §1"}, "[1]": {"molecular_target": "T1, full-length androgen receptor (Homo sapiens, UniProt P10275)", "T1 construct": "HEK293 cells stably expressing the full-length androgen receptor; expressed in transfected cells", "T1 sequence (P10275 1-920)": "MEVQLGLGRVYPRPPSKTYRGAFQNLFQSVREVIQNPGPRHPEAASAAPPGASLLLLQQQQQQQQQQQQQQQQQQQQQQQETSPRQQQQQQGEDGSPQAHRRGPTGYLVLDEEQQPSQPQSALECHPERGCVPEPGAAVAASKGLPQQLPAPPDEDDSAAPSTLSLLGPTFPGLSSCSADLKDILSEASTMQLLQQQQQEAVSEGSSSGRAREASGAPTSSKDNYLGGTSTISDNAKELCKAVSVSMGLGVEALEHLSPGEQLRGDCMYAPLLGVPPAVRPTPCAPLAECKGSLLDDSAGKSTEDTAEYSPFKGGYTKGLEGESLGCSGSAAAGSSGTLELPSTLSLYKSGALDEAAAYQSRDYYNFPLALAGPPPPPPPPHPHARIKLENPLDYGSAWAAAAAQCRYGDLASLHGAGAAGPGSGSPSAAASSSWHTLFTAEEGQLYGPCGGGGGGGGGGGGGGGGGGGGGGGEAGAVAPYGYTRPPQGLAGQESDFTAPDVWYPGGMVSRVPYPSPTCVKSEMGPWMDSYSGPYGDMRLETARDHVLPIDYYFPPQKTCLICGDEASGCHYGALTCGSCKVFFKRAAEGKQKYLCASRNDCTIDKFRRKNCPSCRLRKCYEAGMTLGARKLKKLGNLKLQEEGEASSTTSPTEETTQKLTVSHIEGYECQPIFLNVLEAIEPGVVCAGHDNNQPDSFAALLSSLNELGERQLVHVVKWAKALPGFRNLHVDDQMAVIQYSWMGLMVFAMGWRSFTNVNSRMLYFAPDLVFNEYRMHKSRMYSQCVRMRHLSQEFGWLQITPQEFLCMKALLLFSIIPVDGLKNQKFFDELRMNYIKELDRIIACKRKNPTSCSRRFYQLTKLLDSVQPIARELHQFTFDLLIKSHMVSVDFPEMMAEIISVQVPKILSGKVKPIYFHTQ", "test": "AR antagonism assay (HEK293, testosterone 1 nM, Steady-glo)", "type": "cell-based", "procedure": "AR antagonism assay: To evaluate AR antagonist activity, test compound was added to the assay plate (top dose 10 μM, 3 fold serial dilution, 10 point dose response). HEK293 cells stably expressing the full-length androgen receptor were seeded at a density of 20000 cells/well in the assay plate. The assay plate was then incubated at room temperature for 10 minutes and at 37° C., 5% CO2 for 20 minutes. Testosterone was added to the assay plate at 1 nM final concentration and the assay plate was incubated at 37° C., 5% CO2 for 20 h. After the incubation period, Steady-glo was added to the assay plate and mixed at room temperature for 20 minutes on an orbital shaker, before reading out on the EnVision plate reader."}, "[2]": {"molecular_target": "T2, AR, cytosol from LnCaP cells (Homo sapiens, UniProt P10275, T878A)", "T2 construct": "AR in LNCaP cytosol was used; endogenous in cells; host or cells: LNCaP cells (cytosol)", "T2 sequence (P10275 1-920 T878A)": "T1 sequence (P10275 1-920) with T878A", "test": "AR binding assay, 3H-R1881 (Biological Example 2)", "procedure": "AR binding assay: To assess AR binding, test compound (top dose […], 4 fold serial dilution, 8 point dose response) and control (progesterone) were transferred to the assay plate. Cytosol from LnCaP cells was added to the plate, followed by addition of radiolabeled ^3H-R1881 at a final concentration of 1 nM. The plate was sealed, and the reaction was incubated at 300 rpm at 4° C. for 24 hrs. Radioligand absorption buffer (10 mM Tris-HCl, pH 7.4; 1.5 mM EDTA; 1 mM DTT; 0.25% charcoal; 0.0025% dextran) was then added to the plate, mixed, and incubated at 4° C. for 15 minutes. The plate was then centrifuged at 3000 rpm for 30 minutes at 4° C. The supernatant was transferred to the scint-tube and Tri-carb was used for scintillation counting. The data was analyzed using GraphPadPrism v5.0 and binding IC50 was determined as the concentration where 50% inhibition of radioligand binding was observed."}}, "note": "Where a chain is given by its changes, count along the chain named. Where two headings read alike, the source gives them in different places.", "data": [{"smiles": "C[C@]12C[C@H](CCCCCC(=O)N3CCN(C(=O)c4cc(Cc5n[nH]c(=O)c6ccccc56)ccc4F)CC3)C3=C4CCC(=O)C=C4CC[C@H]3[C@@H]1CCC2=O", "note": "[Compound 1370, (8S,11S,13S,14S)-11-(6-(4-(2-fluoro-5-((4-oxo-3,4-dihydrophthalazin-1-yl)methyl)benzoyl)piperazin-1-yl)-6-oxohexyl)-13-methyl-7,8,11,12,13,14,15,16-octahydro-1H-cyclopenta[a]phenanthrene-3,17(2H,6H)-dione]", "values": [{"measurement": "IC50", "setting": "Human recombinant PARP2", "result": "< 1", "unit": "nM"}, {"measurement": "IC50", "setting": "22Rv1 cells", "result": "100 to 1000", "unit": "nM"}, {"measurement": "IC50", "setting": "LNCap cells; Table 7", "result": "100 to 1000", "unit": "nM"}, {"measurement": "IC50", "setting": "Human recombinant PARP1", "result": "< 1", "unit": "nM"}]}, {"smiles": "C[C@]12C=CC(=O)C[C@@H]1CC[C@@H]1[C@@H]2CC[C@]2(C)[C@@H](OCCCCCC(=O)N3CCN(C(=O)c4cc(Cc5n[nH]c(=O)c6ccccc56)ccc4F)CC3)CC[C@@H]12", "note": "[Compound 1410, 4-(3-(4-(6-((5S,8R,9S,10R,13S,14S,17S)-10,13-dimethyl-3-oxo-4,5,6,7,8,9, 10,11,12,13,14,15,16,17-tetradecahydro-3H-cyclopenta[a]phenanthren-17-yloxy)hexanoyl)piperazine-1-carbonyl)-4-fluorobenzyl)phthalazin-1(2H)-one]", "values": [{"measurement": "IC50", "setting": "[1]", "result": "100 to 1000", "unit": "nM"}, {"measurement": "IC50", "setting": "[2]", "result": "10 to 100", "unit": "nM"}, {"measurement": "IC50", "setting": "22Rv1 cells; Table 7, cell viability, 6 days", "result": "100 to 1000", "unit": "nM"}, {"measurement": "IC50", "setting": "LNCap cells; Table 7", "result": "100 to 1000", "unit": "nM"}]}, {"smiles": "C[C@@H]1C[C@@]2(C)[C@@H](CC[C@@H]3[C@@H]2CC[C@]2(C)[C@@H](OCCCCCC(=O)N4CCN(C(=O)c5cc(Cc6n[nH]c(=O)c7ccccc67)ccc5F)CC4)CC[C@@H]32)CC1=O", "note": "[Compound 1402, 4-(4-fluoro-3-(4-(6-((2R,5S,8R,9S,10S,13S,14S,17S)-2,10,13-trimethyl-3-oxohexadecahydro-1H-cyclopenta[a]phenanthren-17-yloxy)hexanoyl)piperazine-1-carbonyl)benzyl)phthalazin-1(2H)-one]", "values": [{"measurement": "IC50", "setting": "Human recombinant PARP2; Table 9, read-out: PARP2", "result": "1 to 10", "unit": "nM"}, {"measurement": "IC50", "setting": "Human recombinant PARP1; Table 9, read-out: PARP1", "result": "10 to 100", "unit": "nM"}]}, {"smiles": "C[C@]12CC[C@H]3[C@@H](CCC4=CC(=O)CC[C@@]43C)[C@@H]1CC[C@@H]2C(=O)COCCCCCC(=O)NCCOCCOCC(=O)N1CCN(C(=O)c2cc(Cc3n[nH]c(=O)c4ccccc34)ccc2F)CC1", "note": "[Compound 1392]", "values": [{"measurement": "IC50", "setting": "Human recombinant PARP2; Table 9, read-out: PARP2", "result": "< 1", "unit": "nM"}, {"measurement": "IC50", "setting": "LNCap cells; Table 8", "result": "1000 to 10000", "unit": "nM"}, {"measurement": "IC50", "setting": "Human recombinant PARP1; Table 9, read-out: PARP1", "result": "1 to 10", "unit": "nM"}]}]}
